{"source": "paper PMC9021288", "about": "(Nature Communications, 2022)", "key": {"[1]": {"experiment": "7-day Maximum Tolerated Dose 1 (MTD1) rat study", "type": "in vivo, Wistar Han rats", "design": "AUC(0 - t) / Cmax / Urea / Glucose / Triglycerides: unit not given here", "details": "for Liver weight: MTD1 study, individual animals; for Triglycerides / Urea / Glucose: Male", "source_text": "(§1) See the summary of the study design in Supplementary Table 31. Nine-week-old Wistar (Crl:WI (Han)) rats were obtained from Charles River Laboratories (Domaine des Oncins, Saint-Germain-Nuelles, France). […] Animals were examined daily for any altered clinical signs, body weights, and food consumption. Blood samples were taken at different timepoints after the test item administration, and toxicokinetic exposure assessed under the defined experimental conditions and analyzed using Phoenix (version 6.4 and 1.4) (Supplementary Table 32). Measurements included hematology and clinical chemistry measurements. Animals were euthanized and necropsied at the end of the dosing period. At necropsy, major organ systems and tissues were collected and weighed and then examined for gross lesions as well as for microscopic changes."}, "[2]": {"experiment": "7-day PK toxicity rat study", "type": "in vivo, Wistar Han rats", "design": "AUC(0 - t) / Cmax / Concentration (PK study): unit not given here", "source_text": "as §1"}}, "note": "“And” between values parts separate entries of the source, which are not always exact repeats. Identical values can stand only once.", "data": [{"smiles": "C[C@@H](CNC(=O)[C@H](O)C(C)(C)CO)NC(=O)c1cc(F)c(F)cc1F", "note": "[MMV693183]", "values": [{"measurement": "Liver weight", "setting": "[1]; females, 200 mg/kg/day", "value": "6.04 g and 5.86 g"}, {"measurement": "Liver weight", "setting": "[1]; females, 600 mg/kg/day", "value": 6.96, "unit": "g"}, {"measurement": "Liver weight", "setting": "[1]; males, 60 mg/kg/day", "value": "8.13 g and 7.71 g"}, {"measurement": "Liver weight", "setting": "[1]; males, 200 mg/kg/day", "value": "7.63 g and 8.4 g"}, {"measurement": "Liver weight", "setting": "[1]; males, 600 mg/kg/day", "value": "11.11 g and 12.08 g"}, {"measurement": "Triglycerides", "setting": "[1]; 60 mg/kg", "value": "0.56 and 0.92 and 0.69"}, {"measurement": "Urea", "setting": "[1]; 60 mg/kg", "value": "6.5 and 7.4 and 9.1"}, {"measurement": "Glucose", "setting": "[1]; 60 mg/kg, 7 days, per rat", "value": "7.28 and 9.9 and 8.53"}, {"measurement": "Glucose", "setting": "[1]; 200 mg/kg", "value": "7.64 and 9.24 and 10.45"}, {"measurement": "Triglycerides", "setting": "[1]; 200 mg/kg", "value": "0.58 and 0.71 and 0.55"}, {"measurement": "Urea", "setting": "[1]; 200 mg/kg", "value": "8.3 and 8.1 and 9.4"}, {"measurement": "Glucose", "setting": "[1]; 600 mg/kg", "value": "5.54 and 8.3 and 8.46"}, {"measurement": "Triglycerides", "setting": "[1]; 600 mg/kg", "value": "0.57 and 0.62 and 0.56"}, {"measurement": "Urea", "setting": "[1]; 600 mg/kg", "value": "9.5 and 9.2 and 8.3"}, {"measurement": "increase in liver weight", "setting": "[1]; males, 600 mg/kg/day", "value": "up to 71%"}, {"measurement": "hematological and clinical chemistry parameters", "setting": "[1]; rat, in vivo", "value": "no significant treatment-related deviations"}, {"measurement": "mortality", "setting": "[2]; 60, 200 mg/kg/day, 7 days", "value": "no mortality occurred"}, {"measurement": "Liver weight", "setting": "[2]; PK 60 mg/kg/day, Females", "value": 6.5972, "unit": "g"}, {"measurement": "Liver weight", "setting": "[2]; PK 60 mg/kg/day, Males", "value": 11.4290, "unit": "g"}, {"measurement": "Liver weight", "setting": "[2]; PK 200 mg/kg/day, Females", "value": 8.4371, "unit": "g"}, {"measurement": "Liver weight", "setting": "[2]; PK 200 mg/kg/day, Males", "value": 13.5439, "unit": "g"}, {"measurement": "Concentration (PK study)", "setting": "[2]; PK study, Females 60 mg/kg/day, Day 4, 8 hr", "value": "867 and 896 and 826"}, {"measurement": "Concentration (PK study)", "setting": "[2]; PK study, Females 60 mg/kg/day, Day 5, 8 hr", "value": "531 and 997 and 950"}, {"measurement": "Concentration (PK study)", "setting": "[2]; PK study, Females 60 mg/kg/day, Day 6, 8 hr", "value": "642 and 776"}, {"measurement": "Concentration (PK study)", "setting": "[2]; PK study, Females 60 mg/kg/day, Day 7, 8 hr", "value": "936 and 1060 and 1050"}, {"measurement": "Concentration (PK study)", "setting": "[2]; PK study, Females 200 mg/kg/day, Day 1, 0.5 hr", "value": "81400 and 80500 and 68400"}, {"measurement": "Concentration (PK study)", "setting": "[2]; PK study, Females 200 mg/kg/day, Day 1, 1 hr", "value": "65500 and 65700 and 66800"}, {"measurement": "Concentration (PK study)", "setting": "[2]; PK study, Females 200 mg/kg/day, Day 1, 4 hr", "value": "12200 and 17800 and 10500"}, {"measurement": "Concentration (PK study)", "setting": "[2]; PK study, Females 200 mg/kg/day, Day 3, 0.5 hr", "value": "70400 and 75700 and 61100"}, {"measurement": "Concentration (PK study)", "setting": "[2]; PK study, Females 200 mg/kg/day, Day 3, 2 hr", "value": "18000 and 10900 and 12000"}, {"measurement": "Concentration (PK study)", "setting": "[2]; PK study, Females 200 mg/kg/day, Day 3, 8 hr", "value": "2420 and 2030 and 1670"}, {"measurement": "Concentration (PK study)", "setting": "[2]; PK study, Females 200 mg/kg/day, Day 4, 0.5 hr", "value": "47900 and 69400 and 35700"}, {"measurement": "Concentration (PK study)", "setting": "[2]; PK study, Females 200 mg/kg/day, Day 4, 8 hr", "value": "1340 and 729 and 914"}, {"measurement": "Concentration (PK study)", "setting": "[2]; PK study, Females 200 mg/kg/day, Day 4, 24 hr", "value": "LLoQ"}, {"measurement": "Concentration (PK study)", "setting": "[2]; PK study, Females 200 mg/kg/day, Day 5, 2 hr", "value": "3640 and 1960 and 3540"}, {"measurement": "Concentration (PK study)", "setting": "[2]; PK study, Females 200 mg/kg/day, Day 5, 24 hr", "value": "LLoQ"}, {"measurement": "Concentration (PK study)", "setting": "[2]; PK study, Females 200 mg/kg/day, Day 6, 0.5 hr", "value": "17200 and 19900 and 13800"}, {"measurement": "Concentration (PK study)", "setting": "[2]; PK study, Females 200 mg/kg/day, Day 6, 1 hr", "value": "5360 and 3620 and 4830"}, {"measurement": "Concentration (PK study)", "setting": "[2]; PK study, Females 200 mg/kg/day, Day 6, 2 hr", "value": "2060 and 2560"}, {"measurement": "Concentration (PK study)", "setting": "[2]; PK study, Females 200 mg/kg/day, Day 6, 4 hr", "value": "1070 and 1300 and 1240"}, {"measurement": "Concentration (PK study)", "setting": "[2]; PK study, Females 200 mg/kg/day, Day 6, 24 hr", "value": "LLoQ"}, {"measurement": "Concentration (PK study)", "setting": "[2]; PK study, Females 200 mg/kg/day, Day 7, 0.5 hr", "value": "16600 and 15200 and 10900"}, {"measurement": "Concentration (PK study)", "setting": "[2]; PK study, Females 200 mg/kg/day, Day 7, 1 hr", "value": "7160 and 4910 and 4560"}, {"measurement": "Concentration (PK study)", "setting": "[2]; PK study, Females 200 mg/kg/day, Day 7, 8 hr", "value": "446 and 524 and 294"}, {"measurement": "Concentration (PK study)", "setting": "[2]; PK study, Females 200 mg/kg/day, Day 7, 24 hr", "value": "LLoQ"}, {"measurement": "Concentration (PK study)", "setting": "[2]; PK study, Males 60 mg/kg/day, Day 1, 1 hr", "value": "20300 and 24600 and 25700"}, {"measurement": "Concentration (PK study)", "setting": "[2]; PK study, Males 60 mg/kg/day, Day 1, 2 hr", "value": 8920}, {"measurement": "Concentration (PK study)", "setting": "[2]; PK study, Males 60 mg/kg/day, Day 1, 8 hr", "value": "595 and 761 and 549"}, {"measurement": "Concentration (PK study)", "setting": "[2]; PK study, Males 60 mg/kg/day, Day 3, 0.5 hr", "value": "8790 and 10300 and 7140"}, {"measurement": "Concentration (PK study)", "setting": "[2]; PK study, Males 60 mg/kg/day, Day 3, 1 hr", "value": "5740 and 6580 and 9120"}, {"measurement": "Concentration (PK study)", "setting": "[2]; PK study, Males 60 mg/kg/day, Day 4, 1 hr", "value": "4970 and 6410 and 5310"}, {"measurement": "Concentration (PK study)", "setting": "[2]; PK study, Males 60 mg/kg/day, Day 4, 2 hr", "value": 2150}, {"measurement": "Concentration (PK study)", "setting": "[2]; PK study, Males 60 mg/kg/day, Day 5, 0.5 hr", "value": "4090 and 5780 and 6430"}, {"measurement": "Concentration (PK study)", "setting": "[2]; PK study, Males 60 mg/kg/day, Day 5, 1 hr", "value": "2810 and 3810 and 4490"}, {"measurement": "Concentration (PK study)", "setting": "[2]; PK study, Males 60 mg/kg/day, Day 5, 2 hr", "value": 833}, {"measurement": "Concentration (PK study)", "setting": "[2]; PK study, Males 60 mg/kg/day, Day 6, 0.5 hr", "value": "3190 and 3990 and 2700"}, {"measurement": "Concentration (PK study)", "setting": "[2]; PK study, Males 60 mg/kg/day, Day 6, 1 hr", "value": "2440 and 2560 and 2960"}, {"measurement": "Concentration (PK study)", "setting": "[2]; PK study, Males 60 mg/kg/day, Day 6, 2 hr", "value": 793}, {"measurement": "Concentration (PK study)", "setting": "[2]; PK study, Males 60 mg/kg/day, Day 7, 0.5 hr", "value": "4630 and 4120 and 3030"}, {"measurement": "Concentration (PK study)", "setting": "[2]; PK study, Males 60 mg/kg/day, Day 7, 1 hr", "value": "2360 and 3070 and 4490"}, {"measurement": "Concentration (PK study)", "setting": "[2]; PK study, Males 60 mg/kg/day, Day 7, 2 hr", "value": 852}, {"measurement": "Liver weight", "setting": "[2]; PK study, females, 60 mg/kg/day, individual animals", "value": "7.845 g and 6.555 g and 7.19 g and 6.045 g and 7.197 g and 6.726 g and 6.103 g and 6.171 g and 6.163 g and 5.278 g and 7.062 g and 7.17 g and 6.744 g and 6.318 g and 6.169 g and 6.575 g and 6.983 g and 6.456 g"}, {"measurement": "Liver weight", "setting": "[2]; PK study, females, 200 mg/kg/day, individual animals", "value": "8.221 g and 8.493 g and 7.964 g and 8.859 g and 9.347 g and 7.27 g and 8.193 g and 8.745 g and 8.636 g and 8.349 g and 8.711 g and 8.055 g and 7.728 g and 8.238 g and 8.802 g and 8.338 g and 9.482 g"}, {"measurement": "Liver weight", "setting": "[2]; PK study, males, 60 mg/kg/day, individual animals", "value": "11.319 g and 10.601 g and 11.37 g and 12.154 g and 11.768 g and 12.437 g and 11.213 g and 11.313 g and 11.86 g and 10.827 g and 10.923 g and 10.921 g and 10.76 g and 12.104 g and 11.841 g and 10.238 g and 12.991 g and 11.082 g"}, {"measurement": "Liver weight", "setting": "[2]; PK study, males, 200 mg/kg/day, individual animals", "value": "14.027 g and 16.129 g and 13.438 g and 12.573 g and 14.48 g and 14.447 g and 11.375 g and 14.317 g and 13.757 g and 13.38 g and 14.677 g and 13.312 g and 12.998 g and 12.7 g and 12.791 g and 13.174 g and 13.587 g and 12.628 g"}, {"measurement": "decrease of exposure at later timepoints", "setting": "[2]; day 3 to day 7 vs day 1", "value": "up to 11 fold"}, {"measurement": "Increased mitoses, hepatocellular: animals affected", "setting": "[2]; in order: females 60, 200 mg/kg/day", "value": 1}, {"measurement": "Hypertrophy, centrilobular: animals affected", "setting": "[2]; in order: males 60, 200 (n=18), females 60 (n=18), 200 (n=17) mg/kg/day", "value": "18 and 14 and 17"}, {"measurement": "Extramedullary hematopoiesis: animals affected", "setting": "[2]; in order: males 60, 200, females 60, 200 mg/kg/day", "value": "10 and 14 and 9 and 13"}, {"measurement": "Necrosis, hepatocellular: animals affected", "setting": "[2]; in order: males 60, females 60, 200 mg/kg/day", "value": 1}]}]}
